Assay results: patent US20240279265A1, “CRYSTAL FORMS OF GLUCOSAMINE DERIVATIVE, AND PREPARATION METHOD THEREFOR AND USE THEREOF” (RISEN (SUZHOU) PHARMA TECH CO., LTD., priority 2021, published 2024)

Assays:
Type in all cases: physicochemical
[1] = Solubility test in water; details: purified water, room temperature, stirred 2 hours
Protocol: The excess crystals were dissolved in an amount of purified water in a 4 ml vial at room temperature. The mass of an empty watch glass was recorded as m1.
The suspension was stirred for 2 hours and then filtered through a […] into an empty watch glass, the mass m2 at this point was recorded for this watch glass, and the remaining solid was used for XRPD analysis.
The watch glass containing the filtrate was dried in an oven at 40° C. After drying, the mass m3 was recorded and the solubility data of the substrate could be calculated. The masses of the watch glass as well as the amounts of solid and solution are listed in Table 6, and the experimental results are shown in Table 7 and FIG. 12.

[2] = Thermogravimetric analysis (TGA); details: heated at 10° C./min under nitrogen
Protocol: TGA: Samples were analyzed using a TA Instruments TGA Discovery 550. The sample were placed in a tared aluminum tray and automatically weighed, and then the samples were brought to the specified temperatures at a rate of 10° C./min under the protection of nitrogen. In the present invention, the TGA graphs of the above three samples are illustrated in the form of overlay, as shown in FIG. 5.

[3] = Dynamic vapor sorption (DVS); details: for DVS weight gain at an RH of 80%: RH 80%, 25±1° C.; for Mass change (%) - ref, Delay: desorption minus sorption
Protocol: DVS: Samples were analyzed using an Intrinsic DVS ([…] UK). The amount of test sample was about 20-30 mg. The temperature of the test chamber was controlled between 25±1° C., the relative humidity was increased from 0% to 90% and then decreased to 0% at a rate of 10%/h, and the quality data was recorded every 20 s.

[4] = Stability test (crystalline form by XRPD); details: one week
Protocol: 10 mg of the solid was placed into a 2 ml glass vial and the vial was transferred to a stability chamber. The experimental conditions were 25° C./92.5% RH, 40° C./75% RH, 60° C., and light, respectively.

[5] = Solubility in buffer of crystalline form I
From the text: The solubility of crystalline form I of the present invention was investigated at room temperature in buffers at pH 1.2, 4.5 and 6.8. The procedure was consistent with that of the solubility test in water. The masses of the watch glass as well as the amounts of solid and solution are listed in Table 8, and the experimental results are shown in Table 9.

| Solubility in water [1] [mg/g] | TGA weight loss (wt %) [2] | DVS weight gain at an RH of 80% [3] [%] | Mass change (%) - ref, Desorption ([3]; Cycle 1, objective RH 0.0%) [%] | Mass change (%) - ref, Sorption ([3]; Cycle 1, objective RH 0.0%) [%] | Mass change (%) - ref, Desorption ([3]; Cycle 1, objective RH 10.0%) [%] | Mass change (%) - ref, Sorption ([3]; Cycle 1, objective RH 10.0%) [%] | Mass change (%) - ref, Delay ([3]; Cycle 1, objective RH 10.0%) [%] | Mass change (%) - ref, Desorption ([3]; Cycle 1, objective RH 20.0%) [%] | Mass change (%) - ref, Sorption ([3]; Cycle 1, objective RH 20.0%) [%] | Mass change (%) - ref, Delay ([3]; Cycle 1, objective RH 20.0%) [%] | Mass change (%) - ref, Desorption ([3]; Cycle 1, objective RH 30.0%) [%] | Mass change (%) - ref, Sorption ([3]; Cycle 1, objective RH 30.0%) [%] | Mass change (%) - ref, Delay ([3]; Cycle 1, objective RH 30.0%) [%] | Mass change (%) - ref, Desorption ([3]; Cycle 1, objective RH 40.0%) [%] | Mass change (%) - ref, Sorption ([3]; Cycle 1, objective RH 40.0%) [%] | Mass change (%) - ref, Delay ([3]; Cycle 1, objective RH 40.0%) [%] | Mass change (%) - ref, Desorption ([3]; Cycle 1, objective RH 50.0%) [%] | Mass change (%) - ref, Sorption ([3]; Cycle 1, objective RH 50.0%) [%] | Mass change (%) - ref, Delay ([3]; Cycle 1, objective RH 50.0%) [%] | Structure (SMILES) | also measured |
| --- | --- | --- | --- | --- | --- | --- | --- | --- | --- | --- | --- | --- | --- | --- | --- | --- | --- | --- | --- | --- | --- |
| 8.12 | 0.966 wt % | 2.440 | – | – | – | – | – | – | – | – | – | – | – | – | – | – | – | – | – | CCCC(=O)N[C@H]1C(O)O[C@H](COC(=O)CCC)[C@@H](OC(=O)CCC)[C@@H]1O (stereo partly drawn) [API, 2-N-4,6-di-O-tributyryl-D-glucosamine] | – |
| 9.02 | 0.344 wt % | 1.037 | −0.022 | 0.001 | 0.082 | 0.092 | −0.010 | 0.160 | 0.175 | −0.015 | 0.270 | 0.276 | −0.006 | 0.409 | 0.417 | −0.007 | 0.498 | 0.502 | −0.003 | CCCC(=O)N[C@H]1C(O)O[C@H](COC(=O)CCC)[C@@H](OC(=O)CCC)[C@@H]1O (stereo partly drawn) [Crystalline Form I, 2-N-4,6-di-O-tributyryl-D-glucosamine] | Solubility in water ([1]; listed as crystalline form I): 9.08 mg/g; Whether the crystalline form is changed ([4]; 25° C., 92.5% RH): No; Whether the crystalline form is changed ([4]; 40° C., 75% RH): No; Whether the crystalline form is changed ([4]; 60° C.): No; Whether the crystalline form is changed ([4]; Light): No; Solubility in buffer ([5]; buffer pH 1.2, room temperature): 4.08 mg/g; Solubility in buffer ([5]; buffer pH 4.5, room temperature): 6.58 mg/g; Solubility in buffer ([5]; buffer pH 6.8, room temperature): 10.02 mg/g; Mass change (%) - ref, Desorption ([3]; Cycle 1, objective RH 60.0%): 0.627%; Mass change (%) - ref, Sorption ([3]; Cycle 1, objective RH 60.0%): 0.626%; Mass change (%) - ref, Delay ([3]; Cycle 1, objective RH 60.0%): 0.001%; Mass change (%) - ref, Desorption ([3]; Cycle 1, objective RH 70.0%): 0.789%; Mass change (%) - ref, Sorption ([3]; Cycle 1, objective RH 70.0%): 0.800%; Mass change (%) - ref, Delay ([3]; Cycle 1, objective RH 70.0%): −0.011%; Mass change (%) - ref, Desorption ([3]; Cycle 1, objective RH 80.0%): 1.031%; Mass change (%) - ref, Sorption ([3]; Cycle 1, objective RH 80.0%): 1.037%; Mass change (%) - ref, Delay ([3]; Cycle 1, objective RH 80.0%): −0.006%; Mass change (%) - ref, Desorption ([3]; Cycle 1, objective RH 90.0%): 1.662%; Mass change (%) - ref, Sorption ([3]; Cycle 1, objective RH 90.0%): 1.662% |
| 9.08 | None | 0.869 | 0.023 | 0.000 | 0.552 | 0.086 | 0.466 | 0.659 | 0.165 | 0.494 | 0.777 | 0.257 | 0.520 | 0.913 | 0.324 | 0.590 | 0.968 | 0.368 | 0.600 | CCCC(=O)N[C@H]1C(O)O[C@H](COC(=O)CCC)[C@@H](OC(=O)CCC)[C@@H]1O (stereo partly drawn) [Crystalline Form II, 2-N-4,6-di-O-tributyryl-D-glucosamine] | Solubility in water ([1]; listed as crystalline form II): 9.02 mg/g; Mass change (%) - ref, Desorption ([3]; Cycle 1, objective RH 60.0%): 1.080%; Mass change (%) - ref, Sorption ([3]; Cycle 1, objective RH 60.0%): 0.457%; Mass change (%) - ref, Delay ([3]; Cycle 1, objective RH 60.0%): 0.623% |
